pEC50: −log10 of the molar value. Calls of active or inactive are those of the source. The rule behind the calls is not given here.

Experiment [1] in a line: Allosteric modulation at GABA A receptor alpha-1-beta-2-gamma-2S expressed in Xenopus oocytes assessed as enhancement of GABA-induced chloride current. The format is cell-based. To be noted: Oocyte.
The subject of experiment [2] is Oocyte. The experiment is described as follows: Agonist activity at GABA A receptor alpha-1-beta-2-gamma-2S expressed in Xenopus oocytes assessed as enhancement of chloride current at 500 uM. The format is functional, cell-based.
In experiment [3] the test system is Oocyte. The experiment is described as follows: Allosteric modulation at GABA A receptor alpha-1-beta-2-gamma-2S expressed in Xenopus oocytes assessed as enhancement of GABA-induced chloride current at >=3 uM. Type of experiment: cell-based.
For experiment [4], the system named is Oocyte. The experiment is described as follows: Allosteric modulation at GABA A receptor alpha-1-beta-2-gamma-2S expressed in Xenopus oocytes assessed as enhancement of GABA-induced chloride current at 500 uM. The format is cell-based.

In the case of `CC1(C)C2CCC1(C)C(O)C2` (racemic) [BORNEOL], the pEC50 in experiment [1] was 3.63.
In the case of `COc1c2c(cc3c1C(=O)O[C@H](c1ccccc1)C3)OCO2`, the pEC50 in experiment [1] is 3.85. The result in the experiment on Oocyte [2] was inactive. Moreover, in the experiment on Oocyte [3], the outcome was Active. The Activity in the experiment on Oocyte [4] was determined as 145%.
In the case of `CC(C)=CCC[C@](C)(O[C@@H]1O[C@H](CO[C@@H]2O[C@@H](CO)[C@H](O)[C@H]2O)[C@@H](O)[C@H](O)[C@H]1O)[C@H]1CC[C@]2(C)[C@@H]1[C@H](O)C[C@@H]1[C@@]3(C)CC[C@H](O[C@@H]4O[C@H](CO)[C@@H](O)[C@H](O)[C@H]4O[C@@H]4O[C@H](CO)[C@@H](O)[C@H](O)[C@H]4O)C(C)(C)[C@@H]3CC[C@]12C` [GINSENOSIDE RC], the negative logarithm of the EC50 (pEC50) in experiment [1] was 4.27.

In general, pEC50 refers to the EC50 on a negative log10 scale, so that one unit is a factor of ten.

The values above are taken from ChEMBL document CHEMBL1157081, “HPLC-based activity profiling for GABA(A) receptor modulators: a new dihydroisocoumarin from Haloxylon scoparium” (J Nat Prod, 2010).
